Key:
[1] = tested on: KK^Ay mice; assay: Effects of Wacao saponins on glycemia in KK^Ay T2DM mice (Example 2); assay type: in vivo
Text: 80 male KK^Ay mice (12 weeks of age, License NO. SCXK (BJ) 2009-0015, Beijing Huafukang Biology Technology Co. Ltd.) and 10 male normal C57BL/6 mice (12 weeks of age, License NO. SCXK (BJ) 2009-0015, Beijing Huafukang Biology Technology Co. Ltd.) were adaptively bred for one week, and then used in the pharmacological experiment.
The animals were housed individually in wood-chip-bedded plastic cages. Germ-free and high-fat diets (Beijing Huafukang Biology Technology Co. Ltd.) were used to feed the KK^Ay mice, and the standard laboratory chows were used to feed normal C57BL/6 mice. All the animals had free access to food and water.
80 KK^Ay mice were adaptively bred for 1 week, and then randomly assigned into 8 groups: Model group, Compound (1) group, Compound (2) group, Compound (3) group, Compound (4) group, Compound (7) group, Compound (8) group and metformin group, 10 mice per group. 10 normal C57BL/6 mice were used as the control group. KK^Ay mice were fed with the high-fat diet, and the control group was fed with the normal control diet. The control and model groups were hypodermically injected with sterile water, 6 medicated groups were hypodermically injected with 6 kinds of Wacao saponins, the Compounds (1), (2), (3), (4), (7) and (8), and the positive group (metformin group) was irrigated per oral. All groups were administrated at 9 am for 2 weeks. The administrating volume is 10 ml/kg BW and the administration dosage is shown in Table3.
All mice of the fasting tail blood glucose level were measured weekly using One Touch ULTRA Glucometer (Life Scan Johnson and Johnson, USA).
Each compound of Wacao saponins was dissolved into sterile water and sterilized with filtration for Sc. The metformin was dissolved into sterile water for lg. The control and model group mice were injected with sterile water, Sc. All the animals were treated at 9 am for 2 weeks.
Overnight fasting tail blood glucose level was measured weekly using One Touch ULTRA Glucometer and measured for twice.
Each group was administrated for 2 weeks (14 days) and then the experiment was terminated.
Results are expressed as means±SD. Statistical analysis were analyzed by using SPSS 10.0 software. Data were evaluated with analysis of variance.

[2] = tested on: T2DM rats; assay: Fasting glycemia in T2DM model rats (high-fat emulsion + STZ, Example 5); assay type: in vivo, SD rats
Text: 50 male SD rats (180-200 g, License NO. SCXK (BJ) 2011-0004, Beijing SPF Experimental Animal Technology Co. Ltd.) were adaptively bred for 1 week, and then used in the pharmacological experiment.
Animals were housed individually in wood-chip-bedded plastic cages and fed a standard laboratory chow. All the animals had ad libitum access to food and water.
50 SD rats were adaptively bred for 1 week, and then randomly assigned into 5 groups: The control group, model group, Compound (1) group, Compound (2) group and glucobay group (the positive group), 10 rats per group. All the animals were in a standard laboratory diet. Control and model group animals were hypodermically injected with sterile water, test compound treatment groups were subcutaneously injected with the Compounds (1) and (2), and the positive group was administrated glucobay solution by gavage. All the animals were administrated at 9 am for 2 weeks, and the dose volume is 10 ml/kg BW.
The Compounds (1) and (2) were dissolved into sterile water, and sterilized with filtration, Sc. Glucobay was dissolved into sterile water, lg. Animals in the control and model groups were injected with sterile water (10 ml/kg BW), Sc. All the animals were treated at 9 am for 2 weeks (14 days).
All rats except the control group were administrated intragastrically with the high-fat emulsion (10 ml/kg) and weighed the body weight weekly. After weeks of administration, rats were intraperitoneally injected with streptozotocin (STZ, dissolved in citric acid-citrate sodium solution, pH 4.2, freshly prepared and used instantly, and store away from light) (30mg/kg). 4 days later, blood glucose level in rats was measured by tail blood test. Diabetes was defined as fasting blood glucose level>11.1 mmol/Lin in this experiment.
The blood glucose level was measured before and after administration of the treatment compounds for 2 weeks, respectively. The animals were fasted overnight and tail blood samples were taken. Fasting glycemia was measured by using One Touch ULTRA Glucometer or kits.

## CC(=O)OC1C(OC(=O)/C=C/c2ccc(C)cc2)C(C)OC(OC(=O)[C@]23CCC(C)(C)C[C@H]2C2C=C[C@@H]4[C@@]5(C)CC[C@H](OC6OC(C(=O)O)C(O)C(OC7OCC(O)C(O)C7O)C6OC6OC(CO)C(O)C(O)C6O)[C@@](C)(C=O)[C@@H]5CC[C@@]4(C)[C@]2(C)C[C@H]3O)C1OC1OC(C)C(O)C(O)C1O (stereo partly shown) [Compound (1), sinocrassuloside VI]
[1]; 2.0 mg/kg BW Sc daily, after 1 week, vs model group
  glycemia (fasting tail blood glucose), hypoglycemic activity: best hypoglycemic activity
[1]; 2.0 mg/kg BW Sc, 2 weeks, ranking
  anti-hyperglycemia effect, compounds compared with each other: strongest anti-hyperglycemia effect
[2]; 4.0 mg/kg Sc vs glucobay 20 mg/kg lg, 2 weeks
  anti-hyperglycemia efficacy compared with glucobay: much stronger than that of the glucobay
[2]; 4.0 mg/kg Sc, after 2 weeks, vs model group
  glycemia level: significantly decreased

Source: patent publication US20160324884A1, “TREATMENT OF DIABETES WITH PENTACYCLIC TRITERPENOID SAPONIN COMPOUNDS FROM SZECHUAN MELANDIUM ROOT” (priority 2013, published 2016)
